The target in test [1] is T1, Lactobacillus pentosus NADH oxidase (Lp Nox) variant LP-7 (I158S-D177W-V240L), SEQ ID NO:3 (Lactiplantibacillus pentosus, UniProt A0A0U3FIG2, D177W/I158S/V240L).
T1 construct: variant LP-7
T1 sequence (A0A0U3FIG2 1-450 I158S/D177W/V240L): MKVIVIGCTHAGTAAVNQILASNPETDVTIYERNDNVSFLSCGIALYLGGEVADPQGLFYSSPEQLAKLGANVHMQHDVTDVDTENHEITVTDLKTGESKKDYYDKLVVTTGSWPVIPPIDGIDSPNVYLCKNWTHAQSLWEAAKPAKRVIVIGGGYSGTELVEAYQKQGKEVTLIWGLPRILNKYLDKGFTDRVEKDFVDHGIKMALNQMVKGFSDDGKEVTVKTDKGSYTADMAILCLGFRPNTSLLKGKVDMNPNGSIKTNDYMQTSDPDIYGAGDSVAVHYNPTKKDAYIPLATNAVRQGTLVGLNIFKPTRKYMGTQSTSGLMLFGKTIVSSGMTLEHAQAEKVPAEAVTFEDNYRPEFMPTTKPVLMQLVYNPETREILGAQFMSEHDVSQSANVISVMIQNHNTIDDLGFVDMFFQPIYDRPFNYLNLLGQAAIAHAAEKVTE
The test is described as follows: Lp Nox enzymatic kinetics, cofactor oxidation at 340 nm, variant LP-7. Particulars: role: cofactor. The class given is biochemical. On the procedure: (§1) Protein Expression and Purification. Lp Nox wild type or variants (see Table 1) are expressed with E. coli BL21 (DE3) with plasmids inoculated in 2× YT media with 200 mg L^−1 ampicillin. Expression was carried out by inoculation of 20 mL 2× YT media supplied with antibiotics and an overnight culture incubated at 30 °C, 250 RPM with an OD600nm of 0.072. Cells were grown at 37 °C in 50 mL conical tubes, and the cultures were induced with 0.5 mM IPTG at an OD600nm of 0.6-1.0. The 20 mL culture was then incubated at 27 °C and 250 RPM for 24 h. After 24 h, cells were harvested for protein extraction (centrifugation at 4 °C, 3000 RPM, 20 min). Cell pellets were resuspended in Zymo His-Binding buffer (Zymo Research Corporation) supplied with 0.15 mM FAD, 1 μL/mL DNase (Sigma Aldrich) and 1 mM InSolution [COMPOUND LEFT OUT] (Sigma Aldrich). The resuspended cell mixture was added to 0.5 mL of 0.1 mm glass beads (Biospec) and homogenized using a benchtop homogenizer (MP Biomedicals). Cell debris was separated from the crude extract by centrifugation at 4 °C and 15,000 RPM for 5 min. Protein purification was performed using His-Spin Protein Miniprep (Zymo Research Corporation) according to the manufacturer's instructions. The concentrations of purified protein were quantified by a Bradford assay using BSA as a standard. Purified protein was stored in aliquots with 20% (v/v) glycerol at −80 °C.
(§2) NMNH generation. NMNH generation was performed in 20 mL reaction volumes in a 50 ml conical tube containing 200 mM Tris-Cl at pH 8.0, 100 mM sodium chloride, 3 mM potassium chloride, 200 mM glucose, and 20 m MNMN^+. The reaction was initiating by spiking 500 ng of purified Bacillus subtilis glucose dehydrogenase I195R8. The reaction was incubated at 30 °C until reaction progression stopped, approximately 6 h. Reaction progression was monitored by observing the increase in light absorption at 340 nm, corresponding to the reduction of NMN^+ to NMNH. Then, the solution was filtered through a 15 kD cutoff filter to remove the protein. To purify the NMNH, the flowthrough was mixed with HPLC-grade acetonitrile to a final concentration of 70% acetonitrile, and the solution was passed through a Phenomenex Strata NH2 (2 g/12 mL, 55 μm, 70 Å) solid phase extraction column. The column was washed twice with 4 mL of 70:30 acetonitrile:water, then twice with 4 mL of 50:50 acetonitrile:water, twice with 4 mL of 30:70 acetonitrile:water, twice with 4 mL of nanopurified water, and finally twice with 4 mL of methanol. To elute the NMNH from the column, 2 mL of a solution containing 50:50 ammonium hydroxide:methanol was added to the column and incubated for 3 minutes before eluting. The elution step was repeated until no NMNH remained in the flow through, as monitored by light absorption at 340 nm. The elution fractions containing NMNH were pooled and aliquoted in 1 mL volumes into clean tubes. The solutions were dried over air and stored at −80 °C until use.
(§3) Lp Nox Enzymatic Assays and Kinetic study with NMNH, NAD(P) H. The Lp Nox activity (see FIG. 4A) was determined by the change in light absorption at 340 nm at 37 °C in 50 mM Tris-Cl buffer pH 7.0. The reactions were started by adding the purified protein to the prewarmed 37 °C assay mixture containing 0.3 mM of respective cofactor. The absorbance change at 340 nm for NAD(P) H and NMNH was detected using a SpectraMax M3 microplate reader. For kinetics parameter determination (see Table 2), cofactor concentrations were varied from 0 to 2 mM and the results were fitted to the standard Michaelis-Menten equation or Lineweaver-Burk equation to acquire catalytic efficiencies (kcat/Km) when the cofactor concentration tested could not saturate the enzyme activity or during the presence of substrate inhibition. Cofactor concentration over 2 mM could not be measured accurately on M3 spectrometer due to detector absorbance saturation at 340 nm.

The target of test [2] is T2, Lactobacillus pentosus NADH oxidase (Lp Nox) variant LP-3 (I158S-D177W-G178E-V240L), SEQ ID NO:6 (Lactiplantibacillus pentosus, UniProt A0A0U3FIG2, D177W/G178E/I158S/V240L).
T2 construct: variant LP-3
T2 sequence (A0A0U3FIG2 1-450 I158S/D177W/G178E/V240L): T1 sequence (A0A0U3FIG2 1-450 I158S/D177W/V240L) with G178E
The test is described as follows: Lp Nox enzymatic kinetics, cofactor oxidation at 340 nm, variant LP-3. In kind it is biochemical. To be noted: role: cofactor, 50 mM Tris-HCl pH 7.0, 37 °C. On the procedure:
as §1, §2, §3

Setting [3] is: apparent, 50 mM Tris-HCl pH 7.0, 37 °C, cofactor 0 to 2 mM.

Where a chain is given by its changes, count along the chain named.

Regarding `NC(=O)C1=CN([C@@H]2O[C@H](COP(=O)(O)OP(=O)(O)OC[C@H]3O[C@@H](n4cnc5c(N)ncnc54)[C@H](OP(=O)(O)O)[C@@H]3O)[C@@H](O)[C@H]2O)C=CC1` [NADPH, nicotinamide adenine dinucleotide phosphate], in test [1] (setting [3]), the Km (in general, the substrate concentration at which the rate is half of its maximum) worked out at 890 ± 40 µM; the kcat (commonly the number of substrate molecules converted per active site and unit of time at saturation) came to 27 ± 2 s⁻¹; the kcat/Km – broadly, the turnover number divided by the Michaelis constant – stood at 31000 ± 1000 M⁻¹ s⁻¹. In test [2] (apparent, cofactor 0 to 2 mM), the Km came to 1100 ± 100 µM, the kcat is 28 ± 1 s⁻¹ and the kcat/Km was 26000 ± 1000 M⁻¹ s⁻¹.
As for `NC(=O)C1=CN([C@@H]2O[C@H](COP(=O)(O)O)[C@@H](O)[C@H]2O)C=CC1` [NMNH, nicotinamide mononucleotide], the “kcat/Km (catalytic efficiency for NMNH)” value turned out to be 18000 ± 1000 M⁻¹ s⁻¹ in test [1] (50 mM Tris-HCl pH 7.0, 37 °C, enzyme could not be saturated with the cofactor concentrations tested) and 10000 ± 1000 M⁻¹ s⁻¹ in test [2] (enzyme could not be saturated with the cofactor concentrations tested). Moreover, the “increase of catalytic efficiency for NMNH from the wild type” value in test [1] (ratio of kcat/Km to wild type) is listed as ~ 8 fold.

Source of the values: patent publication US20260357222A1, “GROWTH-BASED SELECTION PLATFORM FOR NONCANONICAL COFACTOR OXIDIZING ENZYMES” (The Regents of the University of California, priority 2022, published 2026).
